{"source": "patent US8759482B2", "about": "“Kinetically efficient substrate for lipoic acid ligase” (Massachusetts Institute of Technology, priority 2009, dated 2014)", "key": {"Lp1AW37A": {"molecular_target": "Lp1AW37A (Escherichia coli, UniProt P32099, W38A)", "sequence (P32099 whole entry W38A)": "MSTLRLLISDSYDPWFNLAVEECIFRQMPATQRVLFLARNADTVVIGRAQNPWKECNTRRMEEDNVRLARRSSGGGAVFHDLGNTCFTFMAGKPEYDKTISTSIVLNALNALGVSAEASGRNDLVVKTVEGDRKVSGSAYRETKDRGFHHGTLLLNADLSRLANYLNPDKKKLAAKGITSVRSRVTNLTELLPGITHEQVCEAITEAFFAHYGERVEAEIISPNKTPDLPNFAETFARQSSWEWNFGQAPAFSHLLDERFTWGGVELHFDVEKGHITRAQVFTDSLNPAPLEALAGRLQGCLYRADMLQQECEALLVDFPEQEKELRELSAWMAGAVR", "conditions": "HEK cells, Lp1AW37A and 11-Br 5 min, QD605-HaloTag 5 min", "description": "QD605 emission is shown in the top row. Merged GFP and DIC (differential interference contrast) images are shown in the bottom row. Negative controls are shown with ATP or Lp1A omitted. Scale bars, 10 μm.\nHEK 293T cells were transfected with LAP2-GFP-LDLR plasmid using Lipofectamine 2000. After 24 h in growth media (Dulbecco's Modified Eagle Medium (DMEM) with 10% fetal bovine serum (FBS)) at 37° C., enzymatic ligation of 11-Br was performed in DPBS containing 10 μM Lp1A(W37A), 500 μM 11-Br, 1 mM ATP, 5 mM Mg(OAc)2 and 1% (w/v) BSA (Fraction V, EMD) as a blocking agent for 5 min at room temperature. Cells were then rinsed three times with DPBS followed by treatment with 50 nM HaloTag-QD60531 in DPBS containing 1% BSA for 5 min at room temperature. After another three rinses with DPBS, cells were imaged in the same buffer on a Zeiss Axio Observer.Z1 inverted epifluorescence microscope using a 40X oil-immersion lens. […] Fluorescence images were normalized to the same intensity ranges."}, "[1]": {"molecular_target": "T1, Escherichia coli lipoic acid ligase (Lp1A) (Escherichia coli, UniProt P32099)", "T1 sequence (P32099 1-338)": "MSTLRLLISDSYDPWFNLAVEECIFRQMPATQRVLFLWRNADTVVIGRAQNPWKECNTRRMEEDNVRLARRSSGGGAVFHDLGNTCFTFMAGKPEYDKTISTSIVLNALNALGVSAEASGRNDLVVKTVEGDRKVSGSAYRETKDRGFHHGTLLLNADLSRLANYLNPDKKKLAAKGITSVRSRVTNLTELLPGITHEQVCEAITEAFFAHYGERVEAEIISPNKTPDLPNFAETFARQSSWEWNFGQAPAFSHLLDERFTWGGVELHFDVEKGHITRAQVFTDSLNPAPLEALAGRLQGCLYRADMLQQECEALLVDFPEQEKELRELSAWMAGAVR", "experiment": "Lp1A-catalyzed lipoylation kinetics (kcat, Km) by HPLC", "assay_type": "biochemical", "conditions": "estimated, based on HPLC measurements", "description": "Various concentrations of synthetic LAP2 peptide (not a fusion protein) were lipoylated with 50 nM Lp1A, 750 μM lipoic acid, and 3 mM ATP, and initial reaction rates were measured by HPLC. […] Measurements were performed in triplicate.\nUsing HPLC to quantify product formation, the kcat and Km values were measured for Lp1A-catalyzed lipoylation of a synthetic LAP2 peptide (without an attached fusion protein).\nTo measure the kcat and Km values for lipoylation, 50 nM Lp1A was combined with 750 μM lipoic acid, 2 mM ATP, and 5 mM magnesium acetate in DPBS. Varying concentrations of LAP2 (5.5, 11, 22, 44, 88, 176, or 352 μM) were used; 60 μL aliquots were removed from the 30° C. reactions at 5 min intervals, up to 20 min, and quenched with 180 mM EDTA (final concentration). HPLC was used to determine the amount of product in each aliquot, and kinetic parameters were extracted using the Michaelis-Menten equation as described previously.^13,28"}, "Lp1A [2]": {"molecular_target": "T2, Lp1A (Escherichia coli, UniProt P32099)", "experiment": "Cell surface lipoylation of CFP-TM fusion constructs on mammalian cells", "assay_type": "cell-based", "conditions": "HEK cells, CFP-TM fusions, 1 μM Lp1A, 10 min", "experimental": "FIG. 8 depicts cell surface lipoylation of LAP4.3 vs. LAP4.3D. HeLa cells expressing either LAP4.3-CFP-TM or LAP4.3D-CFP-TM were lipoylated with 1 μM Lp1A for 10 minutes. Lipoylation was detected with Alexa568-conjugated anti-lipoic acid antibody.\nHowever, expression levels of intracellular proteins are similar, whether fused to a LAP sequence or E2p. […] Scale bar, 10 μm. […] Single cell mean fluorescein/CFP intensity ratios were tabulated for >160 cells from >18 fields of view.\nSecond, the LAPs were compared in a cell surface lipoylation assay (FIG. 9). CFP-TM fusion constructs were expressed in human embryonic kidney 293 (HEK) cells, and lipoylation was carried out by purified Lp1A enzyme added to the media. After 10 min of labeling, lipoylated cell surface proteins were imaged using antilipoic acid antibody. […] To quantitatively compare the labeling efficiencies of all the LAP sequences, lipoylation signal (as measured by antibody staining intensity) was plotted against CFP signal for single cells."}, "Lp1A [3]": {"molecular_target": "T2, Lp1A", "conditions": "Azide 7 probe; cited from earlier work"}}, "data": [{"sequence": "DEVLVEIETDKAVLEVPGGEEE [LAP1]", "values": [{"measurement": "QD605 labeling at the cell surface", "setting": "Lp1AW37A", "result": "undetectable"}, {"measurement": "Km", "setting": "[1]", "result": "> 200", "unit": "µM"}, {"measurement": "cell surface lipoylation (antilipoic acid antibody imaging)", "setting": "Lp1A [2]", "result": "labeling was not detected"}, {"measurement": "kcat for Azide 7 ligation", "setting": "Lp1A [3]", "result": 0.048, "unit": "s⁻¹"}]}]}
